Columns and labels:
KG-293 cells = test: TNF-α-induced apoptosis in KG-293 cells with tetracycline-induced intracellular clusterin; type: cell-based, human
Source text: Transfection with clusterin cDNA. Initially a plasmid was constructed that contains a truncated form of clusterin cDNA with deletion of the sequence responsible for cross-membrane transport. Transfection of human embryonic 293 cell line with this plasmid leads to intracellular overexpression of a non-secreted form of clusterin. The clusterin gene is under control of a CMV promoter with tetracycline-sensitive elements. […] This plasmid will be used to deliver the truncated clusterin gene into stem cells. The cells will be selected using G418 as the plasmid contains a neomycin-resistant gene.
A plasmid pKS7 that contains a truncated clusterin cDNA with deletion of the transmembrane domain and a neomycin-resistant gene was constructed. The truncated clusterin gene was under regulation by a CMV promoter with tetracycline-responding elements. Stable transfection of the human embryonic kidney cell line T-293 with pKS7 generates a stable cell line (KG-293) with clusterin overexpressed. As shown by Western blot, under stimulation with tetracycline (1 μg/ml) for 24 hours, KG-293 cells but not their precursors, T-293 cells, produced an intracellular form of clusterin at much higher levels (FIG. 7A). […] KG-293 cells overexpressing the intracellular form of clusterin also underwent dramatic alterations in morphology and proliferation. […]

stem cells = test: Clusterin pretreatment of stem cells in serum-free conditioned medium; type: cell-based, mouse; conditions: 20-30 μg/ml clusterin, 24 hours, preliminary data
Procedure: Stem cell culture and treatment with oxysterols and cytokines. Mouse stem cells were used in this in vitro study. Two groups of proapoptotic agents were used to induce apoptosis of stem cells: oxysterols and cytokines. In group 1, stem cells were treated with 7-ketocholesterol (7-KC) and 25-OH-cholesterol (25-OH—C), two oxysterols known to exist in abundantly in atherosclerotic lesions and to induce apoptosis in cardiovascular cells. Free cholesterol was used as controls. In group 2, stem cells were incubated with a combination of tumor necrosis factor (TNF)-α and interferon (IFN)-γ, two cytokines previously shown to induce apoptosis of stem cells. In addition, to determine whether the Fas death-signaling pathway is involved in apoptosis of stem cells, stem cells were treated with recombinant Fas ligand in the presence of IFN-γ.
Clusterin treatment. In order to determine whether clusterin prevents apoptosis of stem cells, stem cells were pretreated with clusterin purified from serum or synthesized by use of recombinant technology. Stem cells were cultured in a serum-free, conditioned medium supplemented with 20-30 μg/ml clusterin for 24 hours. The preliminary data indicated no apoptosis under the culture condition with clusterin. […] Cells were analyzed for apoptosis using the following methods after treatment. […]

[1] = Dot blotting of clusterin binding to filter-coated lipids; set-up: species or system mouse; conditions: 10 μg/well serum proteins from TG and WT mice, 30 min, room temperature; anti-clusterin detection
Procedure: As a component of HDL, clusterin helps transport cholesterol crossing the cellular membrane. In atherosclerotic lesions, cholesterol-derived oxysterols accumulate and exert apoptotic effects on vascular cells. Usually, the cytotoxicity of oxysterols including 7-ketocholesterol is much greater than that of free cholesterol. […] Free cholesterol and 7-ketocholesterol dissolved in ethanol were loaded to a filter in a 96-well dot blotting device. 10 μg/well proteins from three TG and WT serum samples were incubated in the wells for 30 min at room temperate. After washing with PBS, the filter was incubated with anti-clusterin antibody (1:200), and then anti-goat IgG conjugated with peroxidase. The dot blotting was developed using an ECL kit. Furthermore, an increased binding activity to the oxysterol in the serum from clusterin transgenic mice, compared to these in wild type mouse serum (FIG. 10), was detected. Thus, clusterin appears to have a higher affinity to some oxidized cholesterol derivatives.

[2] = system: vascular smooth muscle cells; test: Oxysterol-induced internucleosomal DNA fragmentation and apoptosis in vascular smooth muscle cells; type: cell-based
Source text: FIG. 11 is an ethedium bromide-stained agarose gel loaded with DNA samples extracted from clusterin-transfected or non-transfected vascular smooth muscle cells.
Detection of apoptotic cells. Determination of apoptosis needs a combination of techniques in morphology and biochemistry. Apoptosis was detected using the following six techniques: 1) Light microscopy; 2) Fluorescent confocal scanning or non-confocal microscopy, 3). In situ labeling of DNA 3′ ends (TUNEL technique), 4) Electron microscopy, 5) DNA agarose gel electrophoresis, and 6) Flow cytometry. These techniques are describe more particularly as follows: 1) Light microscopy was applied routinely to analyze morphological changes of vascular cells. 2) Fluorescent confocal scanning or non-confocal microscopy was used to characterize cytoskeletal and nuclear alterations after immunofluorescent staining. DAPI or Hoechst dye was used for nuclear morphology under UV excitation. 3). […] The signal of TdT-mediated dUTP nick end labeling (TUNEL) was detected by an anti-digoxigenin antibody conjugated with peroxidase, a reporter enzyme which catalytically generates a brown color product from the chromogenic substrate diaminobenzidine. […] DNA was precipitated in ethanol, and analyzed for fragmentation by 2% agarose gel electrophoresis with ethidium bromide. […] In this study, cell proliferation and apoptosis were analyzed by flow cytometry. […]

[3] = system: aldehyde dehydrogenase-1 (ALDH-1); test: Induction of aldehyde dehydrogenase expression in smooth muscle cells (immunoblot); type: cell-based, murine; conditions: recombinant human clusterin 0, 5, 25, 50 μg/ml; concentration-dependent
Procedure: FIG. 13 is an immunoblot showing induction of aldehyde dehydrogenase-1 (ALDH-1) in murine vascular smooth muscle cells by treatment with recombinant human clusterin (apoJ) at different concentrations (lane 1, 0 μg/ml; lane 2, 5 μg/ml; lane 3, 25 μg/ml; lane 4, 50 μg/ml).
Aldehyde dehydrogenase expression and vitamin A metabolism were investigated to determine whether clusterin exerts its protective effect through upregulation of genes involved in cellular detoxification. Aldehyde dehydrogenases (ALDHs) are a group of intracellular enzymes that mediate NAD-coupled oxidation of aldehydes to carboxylic acids. ALDH is probably most widely known for its role in clearance of acetaldehyde from beverage alcohol by conversion to acetic acid. This enzymes is also involved in retinol metabolism and mediates vitamin A function. Members of the ALDH family are diversed; some have broad substrate specificities (ALDH1 and ALDH2) and other ALDHs are tailored to specific reactions of intermediary metabolism (e.g., methyl malonic semialdehyde dehydrogenase in branched-chain amino acid metabolism). ALDH1 is primarily found in the liver and in adult stem cells including hematopoietic stem cells. […]

[4] = system: murine cardiac stem cells; test: Apoptosis of cardiac stem cells induced by serum starvation, with or without clusterin; type: cell-based, mouse; conditions: clusterin-containing DMEM medium, many cells died without clusterin
Procedure: Treatment of stem cells in culture. An in vitro system was first employed to examine the protective effects of clusterin on stem cells. Stem cells were treated with clusterin at different concentrations in the cultures with or without proinflammatory cytokines or T lymphocytes pre-activated by mitogens. After 2-4 days of stimulation, cell survival and apoptosis were examined using a combination of techniques including flow cytometry, fluorescent microscopy, and radioactive isotope labeling, as described below. Control experiments were set up using other types of proteins, such as bovine albumin.
Detection of apoptotic cells. Determination of apoptosis needs a combination of techniques in morphology and biochemistry. Apoptosis was detected using the following six techniques: 1) Light microscopy; 2) Fluorescent confocal scanning or non-confocal microscopy, 3). […] The signal of TdT-mediated dUTP nick end labeling (TUNEL) was detected by an anti-digoxigenin antibody conjugated with peroxidase, a reporter enzyme which catalytically generates a brown color product from the chromogenic substrate diaminobenzidine. […] DNA was precipitated in ethanol, and analyzed for fragmentation by 2% agarose gel electrophoresis with ethidium bromide. […] In this study, cell proliferation and apoptosis were analyzed by flow cytometry. […]

## TNF-α [reference compound]
KG-293 cells; TNF-α 10 ng/ml for 24 and 48 hours, cells not exposed to tetracycline
  induction of apoptosis in control KG-293 cells: markedly induced apoptosis

## clusterin: sulfated, heterodimeric glycoprotein containing two 40 kDa chains joined by a five disulfide bond motif; native or recombinant
Stem cells
  apoptosis of stem cells under culture condition with clusterin: no apoptosis
[1]
  binding to 7-ketocholesterol versus free cholesterol (dot blot intensity): much higher intensities than free cholesterol
KG-293 cells; KG-293 cells with intracellular overexpression of truncated clusterin (pKS7, tetracycline 1 μg/ml)
  effect on the pro-apoptotic effect of TNF-α: significantly attenuated
[2]; overexpression of clusterin by cDNA transfection
  effect on oxysterol-induced DNA fragmentation and apoptosis in vascular cells: markedly reduces the DNA fragmentation and apoptosis
[3]
  expression of ALDH in smooth muscle cells: significantly induced expression of ALDH
[4]
  apoptosis of cardiac stem cells (morphology, acridine orange/ethidium bromide staining): no sign of apoptosis

## CC(C)CCC[C@@H](C)[C@H]1CC[C@H]2[C@@H]3C(=O)C=C4C[C@@H](O)CC[C@]4(C)[C@H]3CC[C@]12C [7-ketocholesterol, reference compound]
[2]; exposure to oxysterol
  induction of apoptosis of vascular smooth muscle cells (internucleosomal DNA fragmentation): can trigger apoptosis

— patent US7524490B2, “Clusterin-mediated inhibition of apoptosis via stromal bone marrow cell delivery to a cardiac site” (Board of Regents of the University of Texas System, priority 2004, dated 2009)
